In experiment [1] the target is T1, 5-HT uptake (Rattus norvegicus, UniProt P31652).
T1 construct: from tissue; host or cells: rat brain medulla and pons, synaptosomes (P2 fraction)
In words: 5-HT uptake inhibition in rat brain synaptosomes. It is filed as biochemical. As to conditions: synaptosomes from rat medulla and pons, [3H]-5-HT. The text has this: (§1) I. Method for Determining Noradrenalin and 5-HT Uptake Inhibition:
(§2) Synaptosomes from rat brain regions were freshly isolated for in vitro studies, as described in the publication “The isolation of nerve endings from brain” by E. G. Gray and V. P. Whittaker, J. Anatomy 96, pages 79-88, 1962. The corresponding literature description is hereby introduced as a reference and is deemed to be part of the disclosure.
(§3) The tissue (hypothalamus for the determination of noradrenalin uptake inhibition and medulla and pons for the determination of 5-HT uptake inhibition) was homogenized in ice-cooled 0.32 M sucrose (100 mg of tissue/1 mL) in a glass homogenizer with Teflon pestle using five complete up and down strokes at 840 revolutions/minute. The homogenate was centrifuged at 4° C. for 10 minutes at 1000 g. After subsequent centrifugation at 17000 g for 55 minutes, the synaptosomes (P2 fraction) were obtained, which were resuspended in 0.32 M glucose (0.5 mL/100 mg of original weight). The particular uptake was measured in a 96-well microtitre plate. The volume was 250 μl and incubation proceeded at room temperature (approx. 20-25° C.) under an O2 atmosphere. The incubation time was 7.5 minutes for [^3H]-NA and 5 minutes for [^3H]-5-HT. The 96 samples were then filtered through a Unifilter GF/B® microtitre plate (Packard) and washed with […] of incubated buffer using a “Brabdel MPXRI-96T Cell-Harvester”. The Unifilter GF/B plate was dried for 1 hour at 55° C. The plate was then sealed with a Back Seal® (Packard) and 35 μl of scintillation fluid were added per well (Ultima Gold®, Packard). After sealing with a top Seal® (Packard) and establishing an equilibrium (around 5 hours), radioactivity was determined in a “Trilux 1450 Microbeta” (Wallac).
(§4) A detailed description of the method may additionally be found in the literature, for example in M. Ch. Frink, H.-H. Hennies, W. Engelberger, M. Haurand and B. Wilffert (1996) Arzneim.-Forsch./Drug Res. 46 (III), 11, 1029-1036.

The target in experiment [2] is T2, NA transporter (Rattus norvegicus, UniProt Q63380).
T2 construct: from tissue; host or cells: rat brain hypothalamus, synaptosomes (P2 fraction)
In words: Noradrenalin uptake inhibition in rat brain synaptosomes. The format is biochemical. As to conditions: synaptosomes from rat hypothalamus, [3H]-NA.
Description: as §1, §2, §3, §4

In general, inhibition refers to the share of the control response that was lost under treatment. Low readings indicate little suppression, high ones strong suppression.

Each structure is given as a SMILES string.

T1 sequence (P31652 whole entry): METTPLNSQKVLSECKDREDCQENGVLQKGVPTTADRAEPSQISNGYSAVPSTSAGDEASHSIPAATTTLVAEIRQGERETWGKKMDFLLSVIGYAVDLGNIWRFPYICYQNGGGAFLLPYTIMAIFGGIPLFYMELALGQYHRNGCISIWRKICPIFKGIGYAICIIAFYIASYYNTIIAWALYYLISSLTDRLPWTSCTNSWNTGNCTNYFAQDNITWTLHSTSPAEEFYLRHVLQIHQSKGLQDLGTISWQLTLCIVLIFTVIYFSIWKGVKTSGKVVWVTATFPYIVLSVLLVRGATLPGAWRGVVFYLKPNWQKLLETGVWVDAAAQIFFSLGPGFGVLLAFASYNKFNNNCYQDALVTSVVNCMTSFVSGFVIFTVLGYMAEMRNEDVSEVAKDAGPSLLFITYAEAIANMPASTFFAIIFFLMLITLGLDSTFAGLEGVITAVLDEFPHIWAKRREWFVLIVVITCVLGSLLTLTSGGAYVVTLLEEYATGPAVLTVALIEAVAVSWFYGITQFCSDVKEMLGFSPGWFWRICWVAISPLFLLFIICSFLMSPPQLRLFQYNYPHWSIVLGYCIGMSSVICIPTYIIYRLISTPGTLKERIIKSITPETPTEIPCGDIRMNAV
T2 sequence (Q63380 1-617): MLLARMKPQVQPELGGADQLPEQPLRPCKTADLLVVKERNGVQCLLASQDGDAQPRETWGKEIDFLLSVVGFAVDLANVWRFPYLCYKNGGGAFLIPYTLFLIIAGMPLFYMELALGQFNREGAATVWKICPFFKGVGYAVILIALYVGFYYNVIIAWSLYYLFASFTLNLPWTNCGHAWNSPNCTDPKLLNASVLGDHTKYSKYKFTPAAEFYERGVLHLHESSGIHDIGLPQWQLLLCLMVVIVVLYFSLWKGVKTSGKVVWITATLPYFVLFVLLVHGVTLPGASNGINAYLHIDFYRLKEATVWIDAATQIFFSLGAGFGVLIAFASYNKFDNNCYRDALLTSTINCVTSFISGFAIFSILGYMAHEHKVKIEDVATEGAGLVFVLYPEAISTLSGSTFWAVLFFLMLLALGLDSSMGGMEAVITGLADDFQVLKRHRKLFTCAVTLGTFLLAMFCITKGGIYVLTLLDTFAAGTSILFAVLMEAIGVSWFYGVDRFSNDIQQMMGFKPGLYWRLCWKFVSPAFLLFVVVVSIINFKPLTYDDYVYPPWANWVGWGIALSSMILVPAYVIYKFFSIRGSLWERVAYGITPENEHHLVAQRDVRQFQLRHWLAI

`COc1ccc(CNC(=O)c2c(-c3ccco3)c(C)cn2Cc2ccc(F)cc2)c(OC)c1` [Example 3, 1-(4-fluorobenzyl)-3-furan-2-yl-4-methyl-1H-pyrrole-2-carboxylic acid 2,4-dimethoxybenzylamide] gave an inhibition at 10 µM in experiment [1] of 58%.

For `CCCCn1cc(C)c(-c2ccc(C)cc2)c1C(=O)NCCc1ccccn1` [Example 4, 1-butyl-4-methyl-3-p-tolyl-1H-pyrrole-2-carboxylic acid (2-pyridin-2-ylethyl)-amide], the inhibition at 10 µM in experiment [1] came out at 39%. `Cc1cn(Cc2ccccc2)c(C(=O)N2CCN(c3ccccc3Cl)CC2)c1-c1ccc(Cl)cc1` [Example 8, [1-benzyl-3-(4-chlorophenyl)-4-methyl-1H-pyrrol-2-yl]-[4-(2-chlorophenyl)-piperazin-1-yl]-methanone] showed an inhibition at 10 µM in experiment [2] of 70%. Turning to `Cc1ccc(Cn2cc(C)c(-c3ccc(C)cc3)c2C(=O)N2CCN(c3ccc(C)cc3C)CC2)cc1` [Example 18, [4-(2,4-dimethylphenyl)-piperazin-1-yl]-[4-methyl-1-(4-methylbenzyl)-3-p-tolyl-1H-pyrrol-2-yl]-methanone], the inhibition at 10 µM in experiment [1] came to 50%. On the same count and under the same terms, the same measure for `Cc1ccc(-c2c(C)cn(Cc3c(Cl)cccc3Cl)c2C(=O)N(C)CCc2ccccn2)cc1` [Example 19, 1-(2,6-dichlorobenzyl)-4-methyl-3-p-tolyl-1H-pyrrole-2-carboxylic acid methyl-(2-pyridin-2-ylethyl)-amide]: 39%. With `Cc1ccc(-c2c(C)cn(C)c2C(=O)N2CCN(C3CCCCCC3)CC2)cc1` [Example 24, (4-cycloheptylpiperazin-1-yl)-(1,4-dimethyl-3-p-tolyl-1H-pyrrol-2-yl)-methanone], the inhibition at 10 µM in experiment [2] came to 33%; in experiment [1] it was 54%. `Cc1cn(Cc2ccccc2)c(C(=O)NCc2ccccn2)c1-c1ccccc1` [Example 26, 1-benzyl-4-methyl-3-phenyl-1H-pyrrole-2-carboxylic acid (pyridin-2-ylmethyl)-amide] returned an inhibition at 10 µM in experiment [2] of 33%. In experiment [1], `COc1ccc(-c2c(C)cn(Cc3ccc(F)cc3)c2C(=O)NC(C)C(=O)OCc2ccccc2)cc1` (stereo not shown) [Example 29, 2-{[1-(4-fluorobenzyl)-3-(4-methoxyphenyl)-4-methyl-1H-pyrrole-2-carbonyl]-amino}-propionic acid benzyl ester] returned an inhibition at 10 µM of 52%. `Cc1cn(CC(C)C)c(C(=O)NCc2ccc(N(C)C)cc2)c1-c1ccc(Cl)cc1` [Example 32, 3-(4-chlorophenyl)-1-isobutyl-4-methyl-1H-pyrrole-2-carboxylic acid 4-dimethylaminobenzylamide] displayed an inhibition at 10 µM in experiment [2] of 35%. In turn, `CCn1cc(C)c(-c2ccc(Cl)cc2)c1C(=O)NCc1cccc(OC)c1OC` [Example 34, 3-(4-chlorophenyl)-1-ethyl-4-methyl-1H-pyrrole-2-carboxylic acid 2,3-dimethoxybenzylamide] yielded an inhibition at 10 µM in experiment [1] of 37%. In experiment [2], `COc1ccc(-c2c(C)cn(Cc3ccc(F)cc3)c2C(=O)NCCc2cccs2)cc1` [Example 35, 1-(4-fluorobenzyl)-3-(4-methoxyphenyl)-4-methyl-1H-pyrrole-2-carboxylic acid (2-thiophen-2-ylethyl)-amide] yielded an inhibition at 10 µM of 37%. In the case of `CCn1cc(C)c(-c2ccc(Cl)cc2)c1C(=O)NC(C(=O)OC(C)(C)C)C(C)C` (stereo not shown) [Example 36, 2-{[3-(4-chlorophenyl)-1-ethyl-4-methyl-1H-pyrrole-2-carbonyl]-amino}-3-methylbutyric acid tert.-butyl ester], the inhibition at 10 µM in experiment [1] is 74%. Still for that read-out and setting: next, `COc1ccc(Cn2cc(C)c(-c3ccco3)c2C(=O)NC2CCCc3ccccc32)cc1` (stereo not shown) [Example 37, 3-furan-2-yl-1-(4-methoxybenzyl)-4-methyl-1H-pyrrole-2-carboxylic acid (1,2,3,4-tetrahydro-naphthalen-1-yl)-amide]: 68%. On the same count and under the same terms, next, `COc1ccc(Cn2cc(C)c(-c3ccc(C)cc3)c2C(=O)N(C)CC(=O)OCc2ccccc2)cc1` [Example 39, {[1-(4-methoxybenzyl)-4-methyl-3-p-tolyl-1H-pyrrole-2-carbonyl]-methylamino}-acetic acid benzyl ester]: 54%. Same read-out and setting: the same measure for `CCOc1ccc(Br)cc1CN1CCN(C(=O)c2c(-c3ccccc3)c(C)cn2C)CC1` [Example 41, [4-(5-bromo-2-ethoxybenzyl)-piperazin-1-yl]-(1,4-dimethyl-3-phenyl-1H-pyrrol-2-yl)-methanone]: 37%.

Turning to `Cc1ccccc1N1CCN(C(=O)c2c(-c3ccc(Cl)cc3)c(C)cn2C)CC1` [Example 46, [3-(4-chlorophenyl)-1,4-dimethyl-1H-pyrrol-2-yl]-(4-o-tolylpiperazin-1-yl)-methanone], the inhibition at 10 µM in experiment [2] came out at 63%; in experiment [1], 34%. In the case of `CCOc1ccc(CCNC(=O)c2c(-c3ccc(OC)cc3)c(C)cn2Cc2ccc(F)cc2)cc1` [Example 47, 1-(4-fluorobenzyl)-3-(4-methoxyphenyl)-4-methyl-1H-pyrrole-2-carboxylic acid [2-(4-ethoxyphenyl)-ethyl]-amide], in experiment [1], the inhibition at 10 µM was 67%. As for `COc1cc(OC)c(CN2CCN(C(=O)c3c(-c4ccc(C)cc4)c(C)cn3C)CC2)c(OC)c1` [Example 49, (1,4-dimethyl-3-p-tolyl-1H-pyrrol-2-yl)-[4-(2,4,6-trimethoxybenzyl)-piperazin-1-yl]-methanone], 10 µM produced 30% inhibition in experiment [1]. On the same count and under the same terms, next, `Cc1cn(C)c(C(=O)N2CCN(c3ccncc3)CC2)c1-c1ccc(Cl)cc1` [Example 57, [3-(4-chlorophenyl)-1,4-dimethyl-1H-pyrrol-2-yl]-(4-pyridin-4-ylpiperazin-1-yl)-methanone]: 66%. Compound `Cc1cn(Cc2ccccc2F)c(C(=O)NCCCn2ccnc2)c1-c1ccc(Cl)cc1` [Example 58, 3-(4-chlorophenyl)-1-(2-fluorobenzyl)-4-methyl-1H-pyrrole-2-carboxylic acid (3-imidazol-1-ylpropyl)-amide] displayed an inhibition at 10 µM in experiment [1] of 50%.

`Cc1cn(Cc2ccccc2)c(C(=O)NCCc2ccc(Br)cc2)c1-c1ccco1` [Example 60, 1-benzyl-3-furan-2-yl-4-methyl-1H-pyrrole-2-carboxylic acid [2-(4-bromophenyl)-ethyl]-amide] displayed an inhibition at 10 µM in experiment [1] of 67%.

With `Cc1cn(C)c(C(=O)N2CCN(C3CCCCCC3)CC2)c1-c1ccco1` [Example 61, (4-cycloheptylpiperazin-1-yl)-(3-furan-2-yl-1,4-dimethyl-1H-pyrrol-2-yl)-methanone], the values for the inhibition at 10 µM in experiment [2] and in experiment [1] were 34% and 52%, respectively. For `COc1ccc(OCCNC(=O)c2c(-c3ccccc3)c(C)cn2Cc2ccccc2)cc1` [Example 62, 1-benzyl-4-methyl-3-phenyl-1H-pyrrole-2-carboxylic acid [2-(4-methoxyphenoxy)-ethyl]-amide], at 10 µM the inhibition in experiment [1] was 73%. With `Cc1cn(Cc2ccc(F)cc2)c(C(=O)NCCCN(C)C)c1-c1ccco1` [Example 63, 1-(4-fluorobenzyl)-3-furan-2-yl-4-methyl-1H-pyrrole-2-carboxylic acid (3-dimethylamino-propyl)-amide], the inhibition at 10 µM was found to be 57% in experiment [2] and 50% in experiment [1]. `CCN(CC)CCCNC(=O)c1c(-c2ccc(Cl)cc2)c(C)cn1CC(C)C` [Example 65, 3-(4-chlorophenyl)-1-isobutyl-4-methyl-1H-pyrrole-2-carboxylic acid (3-diethylamino-propyl)-amide]: in experiment [2], the inhibition at 10 µM is 35%.

In the case of `COc1ccc(-c2c(C)cn(C)c2C(=O)N2CCN(c3cccc(Cl)c3)CC2)cc1` [Example 70, [4-(3-chlorophenyl)-piperazin-1-yl]-[3-(4-methoxyphenyl)-1,4-dimethyl-1H-pyrrol-2-yl]-methanone], the figures for the inhibition at 10 µM in experiment [2] and in experiment [1] were 69% and 54%, respectively. As to `Cc1cn(C)c(C(=O)NCCCN2CCCCC2C)c1-c1ccc(Cl)cc1` (stereo not shown) [Example 78, 3-(4-chlorophenyl)-1,4-dimethyl-1H-pyrrole-2-carboxylic acid [3-(2-methylpiperidin-1-yl)-propyl]-amide], the inhibition at 10 µM in experiment [2] was 32%. In turn, `Cc1cn(C)c(C(=O)NCc2ccc(F)cc2C(F)(F)F)c1-c1ccco1` [Example 80, 3-furan-2-yl-1,4-dimethyl-1H-pyrrole-2-carboxylic acid 4-fluoro-2-trifluoromethylbenzylamide] displayed an inhibition at 10 µM in experiment [2] of 30%. Still for that read-out and setting: next, `Cc1cn(Cc2ccccc2)c(C(=O)NC(C)c2ccc3ccccc3c2)c1-c1ccco1` (stereo not shown) [Example 81, 1-benzyl-3-furan-2-yl-4-methyl-1H-pyrrole-2-carboxylic acid (1-naphthalen-2-ylethyl)-amide]: 57%.
